{
  "source": "patent US20040122062A1",
  "about": "“Use of growth hormone secretagogues for treatment of physical performance decline” (Pfizer Inc, priority 2000, published 2004)",
  "key": {"[1]": {"conditions": "adult female rats; cited from earlier work"}, "[2]": {"conditions": "canines during remobilization; cited from earlier work"}, "[3]": {"conditions": "obese young males; cited from earlier work"}, "[4]": {"assay": "6-Minute Walk Test in a clinical study", "type": "in vivo, human", "conditions": "all dose groups, week 6 and week 12", "procedure": "One physical performance endpoint in a clinical study was to determine whether the test compound, 2-amino-N-[2-(3a-(R)-benzyl-2-methyl-3-oxo-2,3,3a,4,6,7-hexahydro-pyrazolo[4,3-c]pyridin-5-yl)-1-(R)-benzyloxymethyl-2-oxo-ethyl]-isobutyramide, L-tartrate, increased the six-minute walk distance in subjects with mild-to-moderate congestive heart failure. There were four dose groups, 3 mg po tid; 6 mg po tid; 10 mg po q am, and placebo.\nThe six-minute walk study was performed at baseline, week 6, and week 12. The purpose of this test was to determine how many feet an individual can walk within six-minutes."}},
  "note": "Where a SMILES comes first, the peptide text is derived from it. [ ]: non-standard residue; d: D form. d2Nal = N[C@H](Cc1ccc2ccccc2c1)C(=O)O; Aib = CC(C)(N)C(=O)O",
  "data": [
    {"molecule": "GHRP-6", "values": [
      {"measurement": "bone mass", "setting": "[1]", "result": "have the capacity to increase bone mass"}
    ]},
    {"molecule": "CC(C)(N)C(=O)N[C@H](COCc1ccccc1)C(=O)N1CCC2(CC1)CN(S(C)(=O)=O)c1ccccc12", "note": "[MK-0677]", "values": [
      {"measurement": "levels of serum insulin-like growth factor-I", "setting": "[2]", "result": "elevated"},
      {"measurement": "size and strength of the quadriceps muscle", "setting": "[2]", "result": "increased"},
      {"measurement": "markers of bone formation and bone resorption", "setting": "[3]", "result": "increases"}
    ]},
    {"molecule": "CC(C)(N)C(=O)N[C@@H](Cc1c[nH]cn1)C(=O)N[C@H](Cc1ccc2ccccc2c1)C(=O)N[C@H](Cc1ccccc1)C(=O)N[C@@H](CCCCN)C(N)=O", "note": "[ipamorelin] (H-[Aib]H[d2Nal][dF]K-NH2)", "values": [
      {"measurement": "bone mass", "setting": "[1]", "result": "have the capacity to increase bone mass"}
    ]},
    {"molecule": "CN1N=C2CCN(C(=O)[C@@H](COCc3ccccc3)NC(=O)C(C)(C)N)C[C@@]2(Cc2ccccc2)C1=O.O=C(O)C(O)C(O)C(=O)O", "note": "[2-amino-N-[2-(3a-(R)-benzyl-2-methyl-3-oxo-2,3,3a,4,6,7-hexahydro-pyrazolo[4,3-c]pyridin-5-yl)-1-(R)-benzyloxymethyl-2-oxo-ethyl]-isobutyramide, L-tartrate]", "values": [
      {"measurement": "six-minute walk distance, change from baseline", "setting": "[4]", "result": "increased in all dose groups at both 6 and 12 weeks"}
    ]}
  ]
}
